Measured values from patent US9617602B2, “Methods and compositions for determining resistance to androgen receptor therapy” (Aragon Pharmaceuticals, Inc., priority 2012, dated 2017).

Tests used:
Assay type in all cases: cell-based, human
[1] = tested on: Class 2 MDV3100- and ARN-509-resistant cell lines; assay: Proliferation assay (CellTiter-Glo), agonist and antagonist mode; settings: for Antagonism of androgen dependent growth of Class 2 resistant lines: antagonist mode
[2] = tested on: Class 1 ARN-509- and MDV3100-resistant cell lines; assay: as above; settings: for Ligand independent growth of Class 1 cells in presence of compound: absence of added androgens
[3] = tested on: Class 2 resistant cell lines; assay: Transcriptional reporter assay (probasin-luciferase); settings: for Agonist Transcriptional Reporter Assay (% Max Activity) / Antagonist Transcriptional Reporter Assay (% Max Activity): Class 2; for Agonist Transcriptional Reporter Assay (% Max Activity): [Antagonists] = 50 μM; for Antagonist Transcriptional Reporter Assay (% Max Activity): [Antagonists] = 50 μM in presence of R1881
Protocol: (§1) With the exception of the LNCaP/AR(cs)-Luc cells that contain an integrated androgen responsive reporter, cells were transiently transfected using Lipofectin® (Life Technologies) according to the manufacturer's protocol. […] Following transfection, the cells were incubated for 4 hours.
(§2) Following 48 hour incubation the medium was removed and the cells were lysed in 40 μL of lysis buffer (25 mM Tris Phosphate, 2 mM CDTA, 10% Glycerol, 0.5% Triton X-100, 2 mM DTT).

[4] = tested on: LNCaP ARN-509r2 cells; assay: Endogenous gene transcriptional assay (real-time PCR of androgen responsive genes); settings: 1 nM R1881 or 30 μM compound, vehicle=1.00
Protocol: (§3) Total RNA was isolated using the Aurum™ total RNA isolation kit (BIO-RAD, Hercules, Calif.). RNA (1 μg) was reverse transcribed using the iScript cDNA synthesis kit (BIO-RAD, Hercules, Calif.) to produce cDNA. Real-time PCR was performed using the Applied Biosystems 7900HT instrument and SYBR Green PCR Master Mix (Applied Biosystems, Foster City, Calif.). PCR reactions were performed in 6 μL according to the manufacturer's protocol and a thermocycle protocol of 95° C. for 10 minutes followed by 40 cycles of 95° C. for 15 seconds and 58° C. for 1 minute. Androgen responsive gene (PSA, SLUG, TMPRSS2, STEAP4, FKBP5, ORM1, NOV, FASN, NKX3.1, AMIGO2, BDNF, CAMK2N1, HPGD, NCAPD3, PLD1) expression was normalized to GAPDH expression and expressed relative to vehicle treatment of the parental cell line.
(§4) Gene expression was normalized to GAPDH as described above.

[5] = tested on: LNCaP cells; assay: Transcriptional reporter assay (probasin-luciferase); settings: for Agonist Transcriptional Reporter Assay (% Max Activity): [Antagonists] = 50 μM; for Antagonist Transcriptional Reporter Assay (% Max Activity): [Antagonists] = 50 μM in presence of R1881
Protocol: as §1, §2

[6] = tested on: LNCaP/AR(cs) cells; assay: as above; settings: for Agonist Transcriptional Reporter Assay (% Max Activity): [Antagonists] = 50 μM; for Antagonist Transcriptional Reporter Assay (% Max Activity): [Antagonists] = 50 μM in presence of R1881
Protocol: as §1, §2

[7] = tested on: LNCaP ARN-509r1 cells; assay: Endogenous gene transcriptional assay (real-time PCR of androgen responsive genes); settings: 1 nM R1881 or 30 μM compound, vehicle=1.00
Protocol: as §3, §4

[8] = tested on: LNCaP cells; assay: as above; settings: 1 nM R1881 or 30 μM compound, vehicle=1.00
Protocol: as §3, §4

[9] = Homo sapiens, 168 h, read-out: Antagonist Proliferation Assay (% Viability)

CNC(=O)c1ccc(N2C(=S)N(c3cnc(C#N)c(C(F)(F)F)c3)C(=O)C23CCC3)cc1F [ARN-509]
Agonist Proliferation Assay (% Viability) ([1]; Class 2, [Antagonists] = 10 μM, 7 days): ++ (‘++’ = >30) | viability at 0.0001 µM [1, 9]: > 30% | Stimulation of proliferation in Class 2 cell lines ([1]; agonist mode): can stimulate proliferation | Antagonism of androgen dependent growth of Class 2 resistant lines [1]: only partially antagonized | Effect on growth inhibitory activity of R1881 in Class 1 cells [2]: antagonized | viability at 0.0001 µM [2, 9]: > 30% | Ligand independent growth of Class 1 cells in presence of compound [2]: unaltered | Agonist activity in probasin-luciferase reporter assay, Class 2 resistant cells [3]: no agonist activity | Agonist Transcriptional Reporter Assay (% Max Activity) [3]: + (‘+’ = <5) | Antagonist Transcriptional Reporter Assay (% Max Activity) [3]: + (‘+’ = <5) | AMIGO2 gene expression [4]: 0.67 | BDNF gene expression [4]: 1.04 | CAM2KN1 gene expression [4]: 0.46 | FASN gene expression [4]: 0.98 | FKBP5 gene expression [4]: 8.00 | HPGD gene expression [4]: 1.49 | NKX3.1 gene expression [4]: 3.73 | NOV gene expression [4]: 1.39 | ORM1 gene expression [4]: 3.94 | PLD1 gene expression [4]: 0.81 | PSA gene expression [4]: 1.91 | SLUG gene expression [4]: 1.31 | STEAP4 gene expression [4]: 1.45 | TMPRSS2 gene expression [4]: 3.07 | Agonist Transcriptional Reporter Assay (% Max Activity) [5]: + (‘+’ = <5) | Antagonist Transcriptional Reporter Assay (% Max Activity) [5]: + (‘+’ = <5) | Agonist Transcriptional Reporter Assay (% Max Activity) [6]: + (‘+’ = <5) | Antagonist Transcriptional Reporter Assay (% Max Activity) [6]: + (‘+’ = <5) | AMIGO2 gene expression [7]: 0.62 | BDNF gene expression [7]: 0.90 | CAM2KN1 gene expression [7]: 0.37 | FASN gene expression [7]: 1.04 | FKBP5 gene expression [7]: 2.58 | HPGD gene expression [7]: 2.36 | NCAPD3 gene expression [7]: 1.29 | NKX3.1 gene expression [7]: 6.54 | NOV gene expression [7]: 1.40 | ORM1 gene expression [7]: 15.89 | PLD1 gene expression [7]: 0.33 | PSA gene expression [7]: 32.67 | SLUG gene expression [7]: 4.66 | STEAP4 gene expression [7]: 3.03 | TMPRSS2 gene expression [7]: 10.20 | AMIGO2 gene expression [8]: 1.12 | BDNF gene expression [8]: 1.09 | CAM2KN1 gene expression [8]: 1.17 | FASN gene expression [8]: 1.34 | FKBP5 gene expression [8]: 0.99 | HPGD gene expression [8]: 1.48 | NKX3.1 gene expression [8]: 0.90 | NOV gene expression [8]: 1.73 | ORM1 gene expression [8]: 0.71 | PLD1 gene expression [8]: 1.09 | PSA gene expression [8]: 0.66 | SLUG gene expression [8]: 1.27 | STEAP4 gene expression [8]: 0.78 | TMPRSS2 gene expression [8]: 0.77

CNC(=O)c1ccc(N2C(=S)N(c3ccc(C#N)c(C(F)(F)F)c3)C(=O)C2(C)C)cc1F [Enzalutamide, enzalutamide]
Antagonism of androgen dependent growth of Class 2 resistant lines [1]: only partially antagonized | Effect on growth inhibitory activity of R1881 in Class 1 cells [2]: antagonized | Ligand independent growth of Class 1 cells in presence of compound [2]: unaltered | Agonist activity in probasin-luciferase reporter assay, Class 2 resistant cells [3]: weak partial agonist | Agonist Transcriptional Reporter Assay (% Max Activity) [3]: ++ (‘++’ = >5) | Antagonist Transcriptional Reporter Assay (% Max Activity) [3]: ++ (‘++’ = >5) | AMIGO2 gene expression [4]: 0.63 | BDNF gene expression [4]: 0.77 | CAM2KN1 gene expression [4]: 0.38 | FASN gene expression [4]: 0.93 | FKBP5 gene expression [4]: 3.41 | HPGD gene expression [4]: 4.56 | NCAPD3 gene expression [4]: 1.35 | NKX3.1 gene expression [4]: 6.28 | NOV gene expression [4]: 0.71 | ORM1 gene expression [4]: 23.75 | PLD1 gene expression [4]: 0.29 | PSA gene expression [4]: 2.48 | SLUG gene expression [4]: 9.58 | TMPRSS2 gene expression [4]: 4.86 | Agonist Transcriptional Reporter Assay (% Max Activity) [5]: + (‘+’ = <5) | Antagonist Transcriptional Reporter Assay (% Max Activity) [5]: + (‘+’ = <5) | Agonist Transcriptional Reporter Assay (% Max Activity) [6]: + (‘+’ = <5) | Antagonist Transcriptional Reporter Assay (% Max Activity) [6]: + (‘+’ = <5) | AMIGO2 gene expression [7]: 0.99 | CAM2KN1 gene expression [7]: 0.59 | FASN gene expression [7]: 1.53 | FKBP5 gene expression [7]: 9.45 | HPGD gene expression [7]: 10.20 | NCAPD3 gene expression [7]: 3.12 | NOV gene expression [7]: 1.39 | ORM1 gene expression [7]: 205.07 | PLD1 gene expression [7]: 0.24 | PSA gene expression [7]: 57.68 | SLUG gene expression [7]: 42.52 | STEAP4 gene expression [7]: 32.22 | TMPRSS2 gene expression [7]: 23.75 | AMIGO2 gene expression [8]: 1.20 | BDNF gene expression [8]: 0.85 | CAM2KN1 gene expression [8]: 1.39 | FASN gene expression [8]: 1.24 | HPGD gene expression [8]: 1.78 | NCAPD3 gene expression [8]: 1.20 | NKX3.1 gene expression [8]: 1.66 | NOV gene expression [8]: 2.57 | PLD1 gene expression [8]: 0.70 | PSA gene expression [8]: 1.69 | SLUG gene expression [8]: 2.35 | TMPRSS2 gene expression [8]: 1.68
